Changes are numbered by the printed parent chain.

For one experiment, the target named is T1, DmcElp3 (Dehalococcoides mccartyi, UniProt A0A1C7D1B7).
T1 construct: gene cbdbA595
The experiment can be described thus: acetyl-CoA hydrolysis by purified protein, induced by yeast bulk tRNA (weak). The experiment is classed as biochemical.

Experiment [1] concerns the target T2, MinElp3 (Methanocaldococcus infernus, UniProt D5VRB9, K150A).
T2 construct: gene Metin_0452
T2 sequence (D5VRB9 1-534 K150A): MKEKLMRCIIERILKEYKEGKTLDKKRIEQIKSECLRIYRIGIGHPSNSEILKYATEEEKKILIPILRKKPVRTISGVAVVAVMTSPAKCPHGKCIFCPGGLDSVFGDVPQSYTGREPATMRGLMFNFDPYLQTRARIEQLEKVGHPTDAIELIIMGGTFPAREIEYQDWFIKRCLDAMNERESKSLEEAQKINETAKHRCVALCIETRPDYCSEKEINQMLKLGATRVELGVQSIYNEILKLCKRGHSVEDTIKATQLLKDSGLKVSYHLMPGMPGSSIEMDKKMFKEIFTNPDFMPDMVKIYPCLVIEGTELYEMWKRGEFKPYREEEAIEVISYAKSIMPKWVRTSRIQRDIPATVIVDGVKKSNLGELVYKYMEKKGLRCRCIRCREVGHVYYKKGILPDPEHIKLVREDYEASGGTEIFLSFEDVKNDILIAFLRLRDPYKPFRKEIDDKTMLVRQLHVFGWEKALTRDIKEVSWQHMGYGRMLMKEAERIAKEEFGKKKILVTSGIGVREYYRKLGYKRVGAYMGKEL
The experiment can be described thus: acetyl-CoA binding measurement (Supplementary Fig. 6b).

The target in experiment [2] is T3, MinElp3 (Methanocaldococcus infernus, UniProt D5VRB9, DEL466-486/INS466GSGSG).
T3 construct: gene Metin_0452
T3 sequence (D5VRB9 other isoform, or with tags, fused parts or gaps DEL466-486/INS466GSGSG): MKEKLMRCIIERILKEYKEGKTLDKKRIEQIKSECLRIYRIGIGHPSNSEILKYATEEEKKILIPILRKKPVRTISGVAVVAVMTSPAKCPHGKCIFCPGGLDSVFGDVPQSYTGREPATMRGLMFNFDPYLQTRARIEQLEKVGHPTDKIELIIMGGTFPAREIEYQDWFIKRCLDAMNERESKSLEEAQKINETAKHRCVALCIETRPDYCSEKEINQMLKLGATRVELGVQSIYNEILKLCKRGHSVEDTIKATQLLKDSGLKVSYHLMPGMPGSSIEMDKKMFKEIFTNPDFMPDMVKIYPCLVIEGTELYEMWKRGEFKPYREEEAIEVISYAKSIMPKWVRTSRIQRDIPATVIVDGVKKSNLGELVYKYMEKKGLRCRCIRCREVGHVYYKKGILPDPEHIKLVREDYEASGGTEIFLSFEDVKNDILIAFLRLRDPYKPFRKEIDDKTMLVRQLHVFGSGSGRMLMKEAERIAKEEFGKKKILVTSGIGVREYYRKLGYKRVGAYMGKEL
The experiment can be described thus: ITC (also tRNA-induced acetyl-CoA hydrolysis). Type of experiment: binding.

The target in experiment [3] is T4, MinElp3 (Methanocaldococcus infernus, UniProt D5VRB9).
T4 construct: gene Metin_0452; full length
T4 sequence (D5VRB9 1-534): T2 sequence (D5VRB9 1-534 K150A) with A150K
The experiment can be described thus: ITC (also tRNA-induced acetyl-CoA hydrolysis). Type of experiment: binding.

T1 sequence (A0A1C7D1B7 whole entry): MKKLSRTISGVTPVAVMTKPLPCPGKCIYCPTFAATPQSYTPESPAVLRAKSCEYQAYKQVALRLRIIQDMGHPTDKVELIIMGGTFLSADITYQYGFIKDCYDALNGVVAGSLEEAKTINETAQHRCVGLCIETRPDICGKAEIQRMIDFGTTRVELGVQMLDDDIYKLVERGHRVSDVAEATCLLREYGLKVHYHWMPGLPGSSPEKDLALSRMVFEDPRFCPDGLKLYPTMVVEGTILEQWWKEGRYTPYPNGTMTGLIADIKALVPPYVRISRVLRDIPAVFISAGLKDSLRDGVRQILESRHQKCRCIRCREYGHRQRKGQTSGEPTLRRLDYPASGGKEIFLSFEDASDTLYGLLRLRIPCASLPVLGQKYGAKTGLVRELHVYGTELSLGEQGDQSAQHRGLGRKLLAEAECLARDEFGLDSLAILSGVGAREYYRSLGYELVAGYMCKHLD

What is called Kd is the equilibrium constant for the complex coming apart. With `CC(=O)SCCNC(=O)CCNC(=O)[C@H](O)C(C)(C)COP(=O)(O)OP(=O)(O)OC[C@H]1O[C@@H](n2cnc3c(N)ncnc32)[C@H](O)[C@@H]1OP(=O)(O)O` [acetyl-CoA], on DmcElp3, the “acetyl-CoA hydrolysis by purified protein, induced by yeast bulk tRNA (weak)” value is given as “DmcElp3, on the other hand, showed ~5-times reduced-induced hydrolysis activity”. Moreover, at MinElp3 [1], the “acetyl-CoA binding measurement (Supplementary Fig. 6b)” value was “As K150A shows normal tRNA and acetyl-CoA binding, we believe that it might be directly involved the hydrolysis reaction”. In addition, the values for the Kd on MinElp3 [2] and at MinElp3 [3] were 108 ± 55.8 µM and 135 ± 55.3 µM, respectively.
